Assay results from article PMC9853328, “Potent Platinum(IV) Prodrugs That Incorporate a Biotin Moiety to Selectively Target Cancer Cells” (Pharmaceutics, 2022).

Legend:
[1] = test system: U87 glioblastoma cells; assay: MTT in vitro cytotoxicity assay, U87; type: cell-based; details: 72 h drug exposure, n = 3, read-out: GI50 ± SEM, U87
In short: (§1)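 MTT absorbance at 540 nm after 72 h drug exposure gave growth inhibition; GI50 taken from eight-point dose–response curves using the difference between day-0 and end-of-exposure optical density. Mean ± SEM, n = 3 separate experiments.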

[2] = test system: MCF-7 (breast cancer) cells; assay: Cellular platinum uptake by ICP-MS, MCF-7; type: cell-based; details: 0.1 µM, 4 h, ICP-MS
Protocol: Cellular uptake studies were carried out in MCF-7 (breast cancer) and MCF10A (healthy breast) cell lines. Reported in Table S2 are the numbers of cells per well that were seeded onto 12-well plates for each replicate and cell line. After incubating overnight at 37 °C, the cell culture medium was replaced with fresh media containing the test compounds at concentrations of 1.0 and 0.1 µM. After incubating for 4 h, the medium was removed, the cells were washed with PBS twice, and then incubated with trypsin solution until the cells dissociated from the plate. The harvested cells were then placed into an Eppendorf tube and PBS was added to a volume of 1 mL. Cell numbers were determined using trypan blue staining. Cell pellets were obtained after centrifugation and the cells were dispersed in 50 µL of MilliQ™ water and stored immediately at −20 °C until platinum analysis was conducted. These experiments were repeated in triplicate on three separate occasions.
Sixty-nine percent HNO3 (50 µL) was added to each sample and digested at 80 °C for 1.5 h, before being taken up to 1 mL with H2O. The platinum analysis was conducted using a PerkinElmer (Melbourne, Australia) NexION™ 300X inductively coupled plasma mass spectrometer (ICP-MS). A four-point calibration curve was produced by serial dilution of a certified platinum reference standard. The calibration was linear over the working range (R^2 > 0.9999) and the most abundant platinum isotope (m/z = 195) was monitored. The average values for three independent experiments were reported with standard deviations.

[3] = test system: panel of cancer cell lines; assay: MTT cytotoxicity averaged across the panel of cancer cell lines; type: cell-based
[4] = test system: SJ-G2 glioblastoma cells; assay: MTT in vitro cytotoxicity assay, SJ-G2; type: cell-based; details: 72 h drug exposure, n = 3, read-out: GI50 ± SEM, SJ-G2
In short: as §1

[5] = test system: A431 skin cancer cells; assay: MTT in vitro cytotoxicity assay, A431; type: cell-based; details: 72 h drug exposure, n = 3, read-out: GI50 ± SEM, A431
In short: as §1

[6] = test system: Du145 prostate cancer cells; assay: MTT in vitro cytotoxicity assay, Du145; type: cell-based
In short: as §1

[7] = Lipophilicity by RP-HPLC (logkw); type: physicochemical; details: capacity factor in 100% water
Protocol: HPLC experiments were carried out using an Agilent Technologies (Melbourne, Australia) 1260 Infinity instrument, equipped with a Phenomenex (Sydney, Australia) Onyx^TM Monolithic C18 reverse phase column (100 × 4.6 mm, 130 Å). The mobile phase was made up of 0.06% TFA in water (solvent A) and 0.06% TFA in an acetonitrile:water (9:1) mixture (solvent B). Samples were eluted over a gradient of 0–100% (% B) for 15 min, at a flow rate of 1 mL/min, with a sample injection volume of 10 µL. Eluting peaks were detected using a PDA at 254 nm.
For lipophilicity experiments, RP-HPLC was utilised to determine the logkw of each compound, similarly to what has been previously published for similar complexes. Samples were eluted at various isocratic percentages, ranging from 18–30% solvent B. To determine the dead volume of the column, potassium iodide was used as an external dead volume marker. The retention time of each sample in each isocratic run ( tr ) and the dead volume time ( t0 ) were both substituted in Equation (1) to calculate the capacity factor ( k ). (1) k=tr−t0/t0
Following this, logk was plotted against the percentage of ACN. For each complex, a minimum of four concentrations of ACN were used. This produced a linear graph with the equation in the form:(2) logk=Sφ+logkw where S is the slope, φ is the percentage of ACN, and logkw is the y-intercept, which represents the capacity factor of the compound in 100% water.
It is important to explore the lipophilicity of a drug, as it is widely believed that increased lipophilicity results in greater cellular accumulation. To understand the lipophilicity of 1–4, RP-HPLC was utilised to determine the logkw of each complex. To calculate this, each complex was eluted at different isocratic percentages, whereby the retention time was used in Equation (1) to calculate the capacity factor (k). The percentage of the organic solvent was then plotted against log k for each isocratic percentage, producing a linear equation that allowed for logkw to be deduced using Equation (2) (Figure S38). The logkw value represents the capacity factor of the compound in 100% water and can be used to compare a series of compounds. Since 1–4 comprise the same axially bound ligand, biotin, the lipophilicity was influenced by the groups on the PL. The logkw of each complex is presented in Table 1, with their corresponding PL. The increasing lipophilicity of the complexes followed the order: 1 < 4 < 2 < 3.

[8] = test system: HT29 colon cancer cells; assay: MTT in vitro cytotoxicity assay, HT29; type: cell-based
In short: as §1

## COc1cc[n+]2c3c1ccc1c(OC)cc[n+](c13)[Pt-2]21([OH])([O]C(=O)CCCC[C@@H]2SC[C@@H]3NC(=O)N[C@@H]32)[NH2+][C@H]2CCCC[C@@H]2[NH2+]1.O=[N+]([O-])[O-].O=[N+]([O-])[O-] [Complex 3, [Pt(4,7-dimethoxy-1,10-phenanthroline)(1S,2S-diaminocyclohexane)(biotin)(hydroxido)](NO3)2]
[1]
  GI50: 0.32 ± 0.06 µM
[2]
  cellular platinum uptake in MCF-7: greatest uptake
  fold greater uptake in MCF-7 compared to MCF10A: ~3 fold
[3]; across all cancer cell lines
  enhanced activity compared to platinum(II) precursor across the cancer cell lines: ~ 1.3 fold
[3]; average over cancer cell lines
  fold more active than cisplatin, on average, against all cancer cells: 8 fold
[3]; calculated from the panel of cancer cell lines tested (Table S4)
  GI50: 0.459 µM
[4]
  GI50: 0.57 ± 0.17 µM
[5]
  GI50: 0.82 ± 0.22 µM
[6]; MTT, 72 h drug exposure, n = 3, read-out: GI50 ± SEM, Du145
  GI50: 0.12 ± 0.04 µM
[6]; ratio of GI50 values, 72 h
  number-fold potency against cisplatin, Du145 prostate: 10 fold
[7]
  logkw: 0.96
[8]; MTT, 72 h drug exposure, n = 3, read-out: GI50 ± SEM, HT29
  GI50: 0.13 ± 0.05 µM
[8]; ratio of GI50 values, 72 h
  number-fold potency against cisplatin, HT29 colon: 87 fold
